These results are taken from patent US12083101B2, “Biaryl derivatives as YAP/TAZ-TEAD protein-protein interaction inhibitors” (Novartis AG, priority 2020, dated 2024).

Test [1] relates to NCI-H2052 Tet-On shYAP_2371 pLenti6 MCAT_Luc cells. Briefly: Proliferation assay (resazurin), NCI-H2052. The conditions noted are these: Homo sapiens, NCI-H2052, 72 h, 72 hours incubation. It counts as cell-based. The method, boiled down:
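The NCI-H2052 line carries a Tet-inducible shRNA against the YAP1 3′UTR and an MCAT luciferase reporter. The day after seeding, it received eleven 2-fold compound dilutions at 0.1% DMSO, and viability was read by resazurin fluorescence.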
(In general: Alamar Blue is a resazurin reagent that responds to reducing activity.)

For test [2], the target named is Avi-humanTEAD4 217-434 / Cy5 labeled humanYAP 60-100 (Homo sapiens (Human), UniProt Q15561). Description: TR-FRET YAP-TEAD4 in-vitro biochemical assay. It counts as binding. Conditions: 1 nM Avi-humanTEAD4 217-434, 20 nM Cy5-humanYAP 60-100, 1 h room temperature.
The subject of test [3] is MKN-45/Ubc-luc cells. Description: Reporter gene specificity control (Ubc-luciferase), MKN-45. Conditions: Homo sapiens, MKN-45, 24 h, read-out: Reporter gene assay MKN-45 IC50 [μM], MKN-45/Ubc-luc cells (YAP deleted, specificity control), 24 hours incubation.
The subject of test [4] is MKN-45/Ubc-luc cells. Briefly: Proliferation assay (resazurin), MKN-45. The class given is cell-based. Conditions: Homo sapiens, 72 hours incubation.
The subject of test [5] is NCI-H2052 Tet-On shYAP_2371 pLenti6 MCAT_Luc cells (YAP-dependent transcription). Description: YAP reporter gene activity assay (MCAT-luciferase), NCI-H2052. Conditions: Homo sapiens, NCI-H2052, 24 h, 24 hours incubation, BrightGlo luminescence. The class given is cell-based. The method, boiled down: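 NCI-H2052 cells carrying an MCAT-luciferase reporter and a tetracycline-inducible YAP 3′UTR shRNA were treated with eleven 2-fold compound dilutions (0.1% DMSO) for 24 h at 37 °C. BrightGlo luminescence was background-subtracted and expressed as % of DMSO control. IC50 came from a four-parameter fit; MKN-45/Ubc-luc cells served as the specificity counterscreen.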
(In general: Reporter assays use an easily measured gene product as a stand-in for the process of interest.)

Avi-humanTEAD4 217-434 / Cy5 labeled humanYAP 60-100, sequence (Q15561 217-434): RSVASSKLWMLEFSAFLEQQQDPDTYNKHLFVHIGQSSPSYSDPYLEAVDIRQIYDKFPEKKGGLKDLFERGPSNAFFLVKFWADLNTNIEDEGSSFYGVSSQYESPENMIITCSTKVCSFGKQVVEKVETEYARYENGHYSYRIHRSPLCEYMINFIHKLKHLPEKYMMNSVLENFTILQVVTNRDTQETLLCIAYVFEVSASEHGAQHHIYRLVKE

Regarding `COc1cccc([C@@]2(CN)Oc3ccc(Cl)c(-c4c(C(N)=O)ccc(OC(F)F)c4F)c3[C@@H]2O)n1` (atropisomer, axis not shown) [Example 90, 2-((2R,3S,4S)-2-(Aminomethyl)-5-chloro-3-hydroxy-2-(6-methoxypyridin-2-yl)-2,3-dihydrobenzofuran-4-yl)-4-(difluoromethoxy)-3-fluorobenzamide], the values for the GI50 (in test [1]; in the test on MKN-45/Ubc-luc cells [4]) were 1700 nM and greater than 10000 nM, respectively. Further, the IC50 is 22 nM in test [2], greater than 10 µM in the test with MKN-45/Ubc-luc cells [3] and 1430 nM in test [5].

On to `COc1ccc(C(N)=O)c(-c2c(Cl)ccc3c2[C@H](O)[C@@](CN)(c2cccnc2OC)O3)c1F` (atropisomer, axis not shown) [Example 91, 2-((2S,3S,4S)-2-(Aminomethyl)-5-chloro-3-hydroxy-2-(2-methoxypyridin-3-yl)-2,3-dihydrobenzofuran-4-yl)-3-fluoro-4-methoxybenzamide], for which the GI50 was 1930 nM in test [1] and greater than 10000 nM in the test with MKN-45/Ubc-luc cells [4]. For the same compound, the IC50 was 22 nM in test [2], greater than 10 µM with MKN-45/Ubc-luc cells [3] and 960 nM in test [5].

As for `NC(=O)c1ccc(OC(F)F)c(F)c1-c1c(Cl)ccc2c1[C@H](O)[C@@](CNC1CCC1)(c1ccccc1)O2` (atropisomer, axis not shown) [Example 96, 2-((2S,3S,4S)-5-Chloro-2-((cyclobutylamino)methyl)-3-hydroxy-2-phenyl-2,3-dihydrobenzofuran-4-yl)-4-(difluoromethoxy)-3-fluorobenzamide], the concentration for 50% growth inhibition (GI50) in test [1] was 188 nM; in the test with MKN-45/Ubc-luc cells [4], greater than 10000 nM. The IC50 in test [2] is 5 nM; in the test on MKN-45/Ubc-luc cells [3], greater than 10 µM; in test [5], 84 nM.

For the compound `COc1ccc(C(N)=O)c(-c2c(Cl)c(F)cc3c2[C@H](O)[C@@](CN)(c2ccccc2)O3)c1F` (atropisomer, axis not shown) [Example 97, 2-((2S,3S,4S)-2-(Aminomethyl)-5-chloro-6-fluoro-3-hydroxy-2-phenyl-2,3-dihydrobenzofuran-4-yl)-3-fluoro-4-methoxybenzamide], the GI50 is 117 nM in test [1] and greater than 10000 nM in the test with MKN-45/Ubc-luc cells [4]. Further, the IC50 in test [2] is 4 nM; in the test with MKN-45/Ubc-luc cells [3], greater than 10 µM; in test [5], 65 nM.

`NC(=O)c1ccc(OCCO)c(F)c1-c1c(Cl)c(F)cc2c1[C@H](O)[C@@](CNC1CCC1)(c1ccccc1)O2` (atropisomer, axis not shown) [Example 99, 2-((2S,3S,4S)-5-Chloro-2-((cyclobutylamino)methyl)-6-fluoro-3-hydroxy-2-phenyl-2,3-dihydrobenzofuran-4-yl)-3-fluoro-4-(2-hydroxyethoxy)benzamide]: the GI50 is 26 nM in test [1] and greater than 10000 nM in the test with MKN-45/Ubc-luc cells [4]. The IC50 in test [2] was 2 nM; in the test with MKN-45/Ubc-luc cells [3], greater than 10 µM; in test [5], 23 nM.

For `C[C@H]1c2c(ccc(Cl)c2-c2c(C(N)=O)ccc(OC(F)F)c2F)O[C@]1(CN)c1ccccc1` (atropisomer, axis not shown) [Example 103, 2-((2S,3S,4S)-2-(aminomethyl)-5-chloro-3-methyl-2-phenyl-2,3-dihydrobenzofuran-4-yl)-4-(difluoromethoxy)-3-fluorobenzamide], the values for the GI50 (in test [1]; in the test with MKN-45/Ubc-luc cells [4]) were 172 nM and greater than 10000 nM, respectively. Also, the results for the IC50 (in test [2]; in the test with MKN-45/Ubc-luc cells [3]; in test [5]) were 5 nM, greater than 10 µM and 108 nM, respectively.

On to `COCCOc1ccc(C(N)=O)c(-c2c(Cl)c(F)cc3c2[C@H](C)[C@@](CN)(c2ccccc2)O3)c1F` (atropisomer, axis not shown) [Example 106, 2-((2S,3S,4S)-2-(aminomethyl)-5-chloro-6-fluoro-3-methyl-2-phenyl-2,3-dihydrobenzofuran-4-yl)-3-fluoro-4-(2-methoxyethoxy)benzamide], for which the figures for the GI50 (in test [1]; in the test with MKN-45/Ubc-luc cells [4]) were 13 nM and greater than 10000 nM, respectively. Moreover, the IC50 in test [2] was less than 1 nM; in the test on MKN-45/Ubc-luc cells [3], greater than 10 µM; in test [5], 14 nM.

For the compound `COc1ccc(C(N)=O)c(-c2c(Cl)c(F)cc3c2[C@H](C)[C@@](CN)(c2ccccn2)O3)c1F` (atropisomer, axis not shown) [Example 109, 2-((2R,3S,4S)-2-(aminomethyl)-5-chloro-6-fluoro-3-methyl-2-(pyridin-2-yl)-2,3-dihydrobenzofuran-4-yl)-3-fluoro-4-methoxybenzamide], the GI50 is 86 nM in test [1] and greater than 10000 nM in the test on MKN-45/Ubc-luc cells [4]. For the same compound, the values for the IC50 (in test [2]; with MKN-45/Ubc-luc cells [3]; in test [5]) were 3 nM, greater than 10 µM and 75 nM, respectively.

On to `CNC[C@]1(c2ccccc2)Oc2cc(F)c(Cl)c(-c3c(C(N)=O)ccc(OCCO)c3F)c2[C@@H]1C` (atropisomer, axis not shown) [Example 110, 2-((2S,3S,4S)-5-Chloro-6-fluoro-3-methyl-2-((methylamino)methyl)-2-phenyl-2,3-dihydrobenzofuran-4-yl)-3-fluoro-4-(2-hydroxyethoxy)benzamide], for which the GI50 was 27 nM in test [1] and greater than 4000 nM in the test on MKN-45/Ubc-luc cells [4]. Moreover, the IC50 in test [2] was 1 nM; in the test with MKN-45/Ubc-luc cells [3] it was greater than 4 µM; in test [5], 14 nM.

With `CNC[C@]1(c2ccccc2)Oc2cc(F)c(Cl)c(-c3c(C(=O)NC)ccc(OCCO)c3F)c2[C@@H]1C` (atropisomer, axis not shown) [Example 113, 2-((2S,3S,4S)-5-Chloro-6-fluoro-3-methyl-2-((methylamino)methyl)-2-phenyl-2,3-dihydrobenzofuran-4-yl)-3-fluoro-4-(2-hydroxyethoxy)-N-methylbenzamide], the GI50 in test [1] is 29 nM; in the test with MKN-45/Ubc-luc cells [4], greater than 10000 nM. Further, the results for the IC50 (in test [2]; in the test with MKN-45/Ubc-luc cells [3]; in test [5]) were 2 nM, greater than 10 µM and 21 nM, respectively.

On to `C[C@H](O)COc1ccc(C(N)=O)c(-c2c(Cl)c(F)cc3c2[C@H](C)[C@@](CN[C@H]2CC[C@](C)(O)CC2)(c2ccccc2)O3)c1F` (atropisomer, axis not shown) [Example 114a, 2-((2S,3S,4S)-5-chloro-6-fluoro-2-((((trans)-4-hydroxy-4-methylcyclohexyl)amino)methyl)-3-methyl-2-phenyl-2,3-dihydrobenzofuran-4-yl)-3-fluoro-4-((S)-2-hydroxypropoxy)benzamide], for which the GI50 was 23 nM in test [1] and greater than 10000 nM in the test with MKN-45/Ubc-luc cells [4]. In addition, the figures for the IC50 (in test [2]; in the test with MKN-45/Ubc-luc cells [3]; in test [5]) were 2 nM, greater than 10 µM and 18 nM, respectively.

Consider `C[C@H](O)COc1ccc(C(N)=O)c(-c2c(Cl)c(F)cc3c2[C@H](C)[C@@](CN[C@H]2CC[C@@](C)(O)CC2)(c2ccccc2)O3)c1F` (atropisomer, axis not shown) [Example 114b, 2-((2S,3S,4S)-5-chloro-6-fluoro-2-((((cis)-4-hydroxy-4-methylcyclohexyl)amino)methyl)-3-methyl-2-phenyl-2,3-dihydrobenzofuran-4-yl)-3-fluoro-4-((S)-2-hydroxypropoxy)benzamide], for which the results for the GI50 (in test [1]; in the test with MKN-45/Ubc-luc cells [4]) were 34 nM and greater than 10000 nM, respectively. In addition, the IC50 was 2 nM in test [2], greater than 10 µM in the test on MKN-45/Ubc-luc cells [3] and 23 nM in test [5].

For `C[C@H]1c2c(cc(F)c(Cl)c2-c2c(C(N)=O)ccc(OCCO)c2F)O[C@]1(CN[C@H]1CC[C@](C)(O)CC1)c1ccccc1` (atropisomer, axis not shown) [Example 117a, 2-((2S,3S,4S)-5-chloro-6-fluoro-2-((((trans)-4-hydroxy-4-methylcyclohexyl)amino)methyl)-3-methyl-2-phenyl-2,3-dihydrobenzofuran-4-yl)-3-fluoro-4-(2-hydroxyethoxy)benzamide], the GI50 in test [1] is 14 nM; with MKN-45/Ubc-luc cells [4] it was greater than 10000 nM. Besides, the IC50 was less than 1 nM in test [2], greater than 10 µM in the test on MKN-45/Ubc-luc cells [3] and 15 nM in test [5].

Take `C[C@H]1c2c(cc(F)c(Cl)c2-c2c(C(N)=O)ccc(OCCO)c2F)O[C@]1(CN[C@H]1CC[C@@](C)(O)CC1)c1ccccc1` (atropisomer, axis not shown) [Example 117b, 2-((2S,3S,4S)-5-chloro-6-fluoro-2-((((cis)-4-hydroxy-4-methylcyclohexyl)amino)methyl)-3-methyl-2-phenyl-2,3-dihydrobenzofuran-4-yl)-3-fluoro-4-(2-hydroxyethoxy)benzamide]: the GI50 in test [1] is 30 nM; with MKN-45/Ubc-luc cells [4] it was greater than 10000 nM. The figures for the IC50 (in test [2]; in the test with MKN-45/Ubc-luc cells [3]; in test [5]) were 1 nM, greater than 10 µM and 16 nM, respectively.

As for `C[C@H]1c2c(cc(F)c(Cl)c2-c2c(C(N)=O)ccc(OCCO)c2F)O[C@]1(CNC1CCC1)c1ccccc1` (atropisomer, axis not shown) [Example 118, 2-((2S,3S,4S)-5-chloro-2-((cyclobutylamino)methyl)-6-fluoro-3-methyl-2-phenyl-2,3-dihydrobenzofuran-4-yl)-3-fluoro-4-(2-hydroxyethoxy)benzamide], the GI50 is 15 nM in test [1] and greater than 5500 nM in the test with MKN-45/Ubc-luc cells [4]. The figures for the IC50 (in test [2]; in the test with MKN-45/Ubc-luc cells [3]; in test [5]) were 1 nM, greater than 5.5 µM and 10 nM, respectively.

Usually GI50 stands for the concentration that inhibits growth by half.
